Test system: advanced lymphomas
Test: Phase II multi-center trial in patients with advanced lymphomas
Format: in vivo, human
Method: A Phase II multi-center trial of SGLU-1 (darinaparsin) was conducted in patients diagnosed with advanced lymphomas. Eligible patients required therapy and received at least 1 prior therapy. Patients received 300 mg/m^2 of darinaparsin intravenously for 5 consecutive days every 28 days (1 cycle) and were then evaluated for efficacy and safety by standard criteria. Treatment continued until toxicity or progression. To date the study has accrued 22 patients (15 non Hodgkin's [NHL], 7 Hodgkin's); 12 are male and 10 are female. Median age at baseline was 60.5 years (range: 28-80), ECOG performance status was ≤2, and median number of prior therapies was 3 (range: 1-6). Thirteen subjects have received at least 2 cycles of SGLU-1 and are evaluable for efficacy. Of these, 1 (diagnosed with peripheral T-cell lymphoma (PTCL)) has achieved a complete response (CR), 3 (diagnosed with diffuse large B-cell, marginal zone, and Hodgkin's nodular sclerosis, respectively) have achieved partial responses (PRs), and 2 patients with NHL have achieved stable disease (SD). In the patient with marginal zone lymphoma who achieved PR, no evidence for macroscopic disease was present, but microscopic disease was detectable on random biopsies from normal appearing gastric mucosa. All responders had been heavily pretreated (PTCL: CHOP (cyclophosphamide, doxorubicin, vincristine, and prednisolone)×6, ICE (ifosfamide, carboplatin and etoposide)×1, and EPOCH (etoposide, vincristine, doxorubicin, cyclophosphamide, and prednisone)×2; diffuse B-cell: RCHOP (rituximab, cyclophosphamide, doxorubicin, vincristine, and prednisolone)×5, RICE (rituximab, ifosfamide, carboplatin and etoposide)×3, and radiation therapy; marginal zone: rituximab×8, RCVP (rituximab, cyclophosphamide, vincristine and prednisolone)×1, and gemcitabine×1; and Hodgkin's: ICE×1, CBV (cyclophosphamide, carmustine and etoposide)×1, gemcitabine+MDX-060 (Medarex)×6). A total of 49 cycles of SGLU-1 have been administered. The only Grade 3 adverse event (AE) considered drug-related was wheezing. A total of 12 subjects have reported 37 serious adverse events (SAEs) while on study. Of these, only 2 had SAEs that were considered drug-related (neutropenic fever, fall). […] Initial responses (1 CR, 3 PRs, 2 SDs) have been observed among 13 evaluable patients.

[1] = 300 mg/m^2 i.v. 5 consecutive days every 28 days, of 13 evaluable subjects

C[As](C)SC[C@H](NC(=O)CC[C@H](N)C(=O)O)C(=O)NCC(=O)O [SGLU-1, S-(dimethylarsino) glutathione]
complete response (CR) [1]: 1 patients
partial responses (PRs) [1]: 3 patients
Grade 3 adverse event (AE) considered drug-related (22 patients, 49 cycles): wheezing
serious adverse events (SAEs) reported (22 patients, 49 cycles): 37
subjects reporting serious adverse events (SAEs) (22 patients, 49 cycles): 12 subjects
tolerability (heavily pretreated patients with advanced lymphoma): very well tolerated
subjects with SAEs considered drug-related (neutropenic fever, fall): 2 subjects

— US11324714B2 (priority 2008, dated 2022)
